Reference: the supplement of paper PMC10307832

What was measured:
Experiment in all cases: relative viability (nuclei count vs DMSO), 5 days (fraction); higher = more cells survive
[1] = compound: CC(C)C[C@H](NC(=O)[C@H](CCc1ccccc1)NC(=O)CN1CCOCC1)C(=O)N[C@@H](Cc1ccccc1)C(=O)N[C@@H](CC(C)C)C(=O)[C@@]1(C)CO1 [Carfilzomib] + NC(=O)Nc1cc(-c2cccc(F)c2)sc1C(=O)N[C@H]1CCCNC1 [AZD7762] (partner 0.2 µM)
Procedure, shortened: (§1)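 Each reported value is a median over duplicate plates. It expresses relative viability: treated-well nuclei count divided by vehicle-well nuclei count. Lung cancer cell lines in 1536-well plates were dosed by pin tool a day after seeding, alone with one drug or with a fixed anchor-drug dose plus five library-drug doses (not always all listed) in √10 steps, and nuclei were counted after 5 days.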

[2] = compound: CC(C)C[C@H](NC(=O)[C@H](CCc1ccccc1)NC(=O)CN1CCOCC1)C(=O)N[C@@H](Cc1ccccc1)C(=O)N[C@@H](CC(C)C)C(=O)[C@@]1(C)CO1 [Carfilzomib] + O=C(c1cc(Cc2n[nH]c(=O)c3ccccc23)ccc1F)N1CCN(C(=O)C2CC2)CC1 [Olaparib] (partner 8 µM)
Procedure, shortened: as §1

[3] = compound: O=C(c1cc(Cc2n[nH]c(=O)c3ccccc23)ccc1F)N1CCN(C(=O)C2CC2)CC1 [Olaparib] + CS(=O)(=O)N1CCN(Cc2cc3nc(-c4cccc5[nH]ncc45)nc(N4CCOCC4)c3s2)CC1 [Pictilisib] (partner 1 µM)
Procedure, shortened: as §1

[4] = compound: O=C(c1cc(Cc2n[nH]c(=O)c3ccccc23)ccc1F)N1CCN(C(=O)C2CC2)CC1 [Olaparib] + N=C(N)NC(=N)NCCc1ccccc1 [Phenformin] (partner 250 µM)
Procedure, shortened: as §1

NCI-H1793
relative viability ([1]; first compound 0.001 µM): 0.481
relative viability ([1]; first compound 0.003162 µM): 0.883
relative viability ([1]; first compound 0.01 µM): 0.599
relative viability ([1]; first compound 0.03162 µM): 0.757
relative viability ([1]; first compound 0.1 µM): 0.506
relative viability ([2]; first compound 0.001 µM): 0.811
relative viability ([2]; first compound 0.003162 µM): 1.05
relative viability ([2]; first compound 0.01 µM): 0.924
relative viability ([2]; first compound 0.03162 µM): 0.732
relative viability ([2]; first compound 0.1 µM): 0.223
relative viability ([3]; first compound 0.08 µM): 0.515
relative viability ([3]; first compound 0.253 µM): 0.389
relative viability ([3]; first compound 2.53 µM): 0.251
relative viability ([3]; first compound 8 µM): 0.298
relative viability ([4]; first compound 0.08 µM): 0.341
relative viability ([4]; first compound 0.253 µM): 0.348
relative viability ([4]; first compound 2.53 µM): 0.305
relative viability ([4]; first compound 8 µM): 0.287
